One data set relates to CD1 mice. The settings on record: CD1, mouse, in vivo, ip. How it is done:
To define the acute toxicity of Sag and Sag NO2, the test compound was administered i.p. to CD1 mice at the single doses of 250, 500, 1000 and 1500 mg/Kg. Control groups were treated i.p. with vehicle (pure DMSO; 100 μl/mouse). Each group consisted of 10 mice. Mortality was evaluated every hour for the first 4 hours and then every 10 hours until 14 days after dosing.

For another data set, the system named is C6 rat astrocytoma. Briefly: Cell viability, C6 cells. It counts as cell-based. The settings on record: read-out: reduction of cell viability. An excerpt: (§1) Rat glioma C6 and human glioblastoma U251 cell lines were a kind gift from Dr. Pedro Tranque (Universidad de Castilla-La Mancha, Albacete, Spain), murine melanoma B 16, and human adenocarcinoma HeLa, were a kind gift from Dr. Sinisa Radulovic (Institute for Oncology and Radiology of Serbia, Belgrade, Serbia) while mouse fibrosarcoma L929 was obtained from the European Collection of Animal Cell Cultures (Salisbury, UK). Human breast HCC1419 and prostate PC-3 cells were purchased from LGC Promochem srl (Venezia, Italy). Primary mouse fibroblasts and rat astrocytes were prepared as described (Mijatovic et al. 2004). […]
(§2) Reduction of 3-4,5-dimethylthiazol-2-yl)-2,5-diphenyltetrazolium bromide (MTT) to formazan depends on mitochondrial activity of cultured cells, absorption of crystal violet dye correlates with the number of adherent, live cells, while the release of cytosolic lactate dehydrogenase (LDH) indicates the disruption of membrane integrity caracteristic for necrotic cells. […] Mitohondrial-dependent production of formazan and intensity of absorbed crystal violet by adherent cells were assessed by an automated microplate reader at 570 nm, while the pyruvate-mediated conversion of 2,4-dinitrophenylhydrazine into visible hydrazone precipitate in LDH assay was measured at 492 nm. […]
(§3) FIG. 2. […] Cell viability was then evaluated by CV test. […]

The test system of another data set is B16 mouse melanoma. The data set can be described thus: Cell viability, B16 cells. The data set is classed as cell-based. The settings on record: read-out: reduction of cell viability.
Excerpt: as §1, §2, §3

A further data set has as its system C6 cells. The data set can be described thus: Cell proliferation by CFSE staining, C6. It counts as cell-based, rat. The settings on record: 18.8 μM, 48 h, about 90% of control cells divided. Here is the method:
(§4) Rate of cell proliferation was verified by flow cytometric analysis of cells labelled with CFSE (Kang et al. 2005). CFSE dye is stable in cytoplasm more than 15 generations and the intensity of fluorescence decline after each division. Briefly, detached cells were stained with 1.5 μM CFSE for the 15 min at 37° C., washed 2 times, seeded in 6-well plates at 2×10^5 cells/well and then exposed to drugs. After 24 and 48 h of cultivation cells were trypsinized and washed 2 times. Finally, the cells were resuspended in PBS and analyzed by flow cytometry. Green fluorescence emission was measured with a FACSCalibur (BD, Heidelberg, Germany) and analyzed using CellQuest software.
(§5) FIG. 4. […] Results are calculated as indicated in materials and methods and presented as mean±SD from representative of three independent experiment (*p <0.05). […] After 24 h of cultivation without or with drugs, cells were stained with AO orange (B) or PI (C) and analyzed by flow cytometry. The data are presented as mean±SD from three independent experiments. *p<0.05, refers to untreated cultures. […] Cells were incubated with 18.8 μM of Sag or Saq-NO2 for 24 h. After that, the drugs were either removed or not from the cells and incubated for additional 24 h. Cell viability was determined by CV test after 24 and 48 h of incubation (right panels). […]

A further data set deals with B16 cells. The data set can be described thus: Cell proliferation by CFSE staining, B16. The settings on record: 18.8 μM, 48 h, B16 cells which survived the treatment. It counts as cell-based, mouse. How it is done:
as §4, §5

Like-named read-outs stand apart in the source and are kept apart here.

`CC(C)(C)NC(=O)[C@@H]1C[C@@H]2CCCC[C@@H]2CN1C[C@@H](O)[C@H](Cc1ccccc1)NC(=O)[C@H](CC(N)=O)NC(=O)c1ccc2ccccc2n1` [Saq, Saquinavir, reference compound] showed a lethality in the data set with CD1 mice (500 mg/kg, 24 h) of 20%. In the data set with CD1 mice (1000 mg/kg, 14 days), this compound came in with a lethality of 30%. Moreover, in the data set with CD1 mice (14 days), the lethality is on record as 100%, the “time of death (mean±SD)” value was determined as 65 ± 58 h and the “time of death (range)” value lay within 18 to 144 h.
Turning to `CC(C)(C)NC(=O)[C@@H]1C[C@@H]2CCCC[C@@H]2CN1C[C@@H](O[N+](=O)[O-])[C@H](Cc1ccccc1)NC(=O)[C@H](CC(N)=O)NC(=O)c1ccc2ccccc2n1` [Saq-NO2, nitric ester of Saquinavir], the cytotoxicity at 18.8 µM in the data set with C6 rat astrocytoma is approximately 50%; in the data set on B16 mouse melanoma, approximately 70%. Further, in the data set with C6 cells, the “cells able to proliferate (divided)” value was “less than 10%”. In addition, in the data set on B16 cells, the dividing potential entry is recorded as “decreased dividing potential”.

For the origin of these results see US8563578B2, “Antitumor properties of NO modified protease inhibitors” (Onconox APS, priority 2008, dated 2013).
